Where a name gives a salt, the structure may show the parent alone. Read-outs that look alike come from different tables or passages of the source.
Legend:
[1] = system: angiotensin II-induced pressor responses; assay: Test C: in vivo antagonism of angiotensin II-induced pressor responses in terminally-anaesthetised or conscious rats; conditions: Rattus norvegicus, iv, i.v. administration
From the text: The antagonism of one or more of the physiological actions of AII and, in particular, the antagonism of the interaction of AII with the receptors which mediate its effects on a target tissue, may be assessed using one or more of the following, routine laboratory procedures: Test C: This in vivo test involves using terminally-anaesthetised or conscious rats in which an arterial catheter has been implanted under anaesthesia for the measurement of changes in blood pressure. The AII antagonistic effects of the test compound following oral or parenteral administration, are assessed against angiotensin II-induced pressor responses. To ensure that the effect is specific, the effect of the test compound on vasopressin-induced pressor responses may also be determined in the same preparation.

[2] = biological target: T1, AII receptors (guinea pig adrenal gland cell surface membranes) (Cavia porcellus, UniProt Q9WV26); assay: Test A: displacement of radiolabelled AII binding to cell surface membrane fraction (guinea pig adrenal gland)
T1 construct: from tissue; host or cells: guinea pig adrenal gland, cell surface membrane fraction
T1 sequence (Q9WV26 1-359): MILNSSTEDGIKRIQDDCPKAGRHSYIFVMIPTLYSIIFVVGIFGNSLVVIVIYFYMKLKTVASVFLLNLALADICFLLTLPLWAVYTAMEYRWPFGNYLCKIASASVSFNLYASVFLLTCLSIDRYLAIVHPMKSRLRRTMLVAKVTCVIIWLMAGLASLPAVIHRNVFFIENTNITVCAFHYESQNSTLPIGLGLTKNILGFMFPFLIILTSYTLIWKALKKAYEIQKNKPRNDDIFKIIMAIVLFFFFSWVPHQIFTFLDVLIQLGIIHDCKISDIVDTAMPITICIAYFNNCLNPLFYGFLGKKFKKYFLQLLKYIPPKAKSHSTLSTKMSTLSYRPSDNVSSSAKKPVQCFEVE
Description: The antagonism of one or more of the physiological actions of AII and, in particular, the antagonism of the interaction of AII with the receptors which mediate its effects on a target tissue, may be assessed using one or more of the following, routine laboratory procedures: Test A: This in vitro procedure involves the incubation of the test compound initially at a concentration of 100 micromolar (or less) in a buffered mixture containing fixed concentrations of radiolabelled AII and a cell surface membrane fraction prepared from a suitable angiotensin target tissue. In this test, the source of cell surface membranes is the guinea pig adrenal gland which is well known to respond to AII. Interaction of the radiolabelled AII with its receptors (assessed as radiolabel bound to the particulate membrane fraction following removal of unbound radiolabel by a rapid filtration procedure such as is standard in such studies) is antagonized by compounds which also bind to the membrane receptor sites and the degree of antagonism (observed in the test as displacement of membrane-bound radioactivity) is determined readily by comparing the receptor-bound radioactivity in the presence of the test compound at the specified test concentration with a control value determined in the absence of the test compound. […]

IC50 ([2]; average, read-out: IC50 (concentration for 50% displacement of radiolabelled AII binding), average) | IC50 ([2]; read-out: IC50 (concentration for 50% displacement of radiolabelled AII binding)) | Structure (SMILES) | ED50 [1]
17 nM | – | Cc1cc(OCc2ccc(-c3ccccc3-c3nnn[nH]3)cc2)c2ccccc2n1.Cl [2-methyl-4-[(2'-(1H-tetrazol-5-yl)biphenyl-4-yl)methoxy]quinoline hydrochloride] | 0.5 mg/kg
– | 30 nM | Cc1cc(OCc2ccc(-c3ccccc3-c3nn[nH]n3)cc2)c2c(n1)CCCC2 [2-methyl-5,6,7,8-tetrahydro-4-[(2'-(1H-tetrazol-5-yl)methoxy]quinoline hydrochloride] | 0.28 mg/kg
